Tests used:
[1] = target: T1, Glucocorticoid receptor (Homo sapiens, UniProt P04150); format: functional
T1 sequence (P04150 whole entry): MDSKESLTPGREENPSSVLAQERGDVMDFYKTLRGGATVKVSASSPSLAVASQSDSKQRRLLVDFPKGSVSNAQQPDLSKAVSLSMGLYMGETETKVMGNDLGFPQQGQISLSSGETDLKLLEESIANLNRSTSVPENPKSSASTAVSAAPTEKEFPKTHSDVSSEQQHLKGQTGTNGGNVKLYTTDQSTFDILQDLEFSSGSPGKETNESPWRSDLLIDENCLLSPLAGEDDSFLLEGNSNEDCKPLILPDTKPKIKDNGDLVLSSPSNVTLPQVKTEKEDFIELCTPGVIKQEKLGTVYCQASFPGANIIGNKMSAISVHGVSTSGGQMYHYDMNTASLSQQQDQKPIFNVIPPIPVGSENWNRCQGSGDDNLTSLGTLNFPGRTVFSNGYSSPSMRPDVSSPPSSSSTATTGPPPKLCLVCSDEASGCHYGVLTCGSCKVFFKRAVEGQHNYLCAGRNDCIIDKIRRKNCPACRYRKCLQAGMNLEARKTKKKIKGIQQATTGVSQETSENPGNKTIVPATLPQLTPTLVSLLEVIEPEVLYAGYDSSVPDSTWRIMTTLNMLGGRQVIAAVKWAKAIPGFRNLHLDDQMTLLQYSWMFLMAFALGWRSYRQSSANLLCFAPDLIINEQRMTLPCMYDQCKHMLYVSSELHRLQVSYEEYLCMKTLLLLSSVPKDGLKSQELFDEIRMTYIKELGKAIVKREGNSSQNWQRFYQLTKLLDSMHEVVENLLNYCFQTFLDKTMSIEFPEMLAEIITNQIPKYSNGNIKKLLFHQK

[2] = target: Gamma-aminobutyric acid receptor subunit alpha-1/alpha-2/beta-2/gamma-2 (Homo sapiens, UniProt P14867+P18507+P47869+P47870); format: functional, cell-based
[3] = target: T1, Glucocorticoid receptor; format: functional; remark: listed apart in the source
[4] = target: T2, Alpha-2A adrenergic receptor (Homo sapiens, UniProt P08913)
T2 sequence (P08913 whole entry): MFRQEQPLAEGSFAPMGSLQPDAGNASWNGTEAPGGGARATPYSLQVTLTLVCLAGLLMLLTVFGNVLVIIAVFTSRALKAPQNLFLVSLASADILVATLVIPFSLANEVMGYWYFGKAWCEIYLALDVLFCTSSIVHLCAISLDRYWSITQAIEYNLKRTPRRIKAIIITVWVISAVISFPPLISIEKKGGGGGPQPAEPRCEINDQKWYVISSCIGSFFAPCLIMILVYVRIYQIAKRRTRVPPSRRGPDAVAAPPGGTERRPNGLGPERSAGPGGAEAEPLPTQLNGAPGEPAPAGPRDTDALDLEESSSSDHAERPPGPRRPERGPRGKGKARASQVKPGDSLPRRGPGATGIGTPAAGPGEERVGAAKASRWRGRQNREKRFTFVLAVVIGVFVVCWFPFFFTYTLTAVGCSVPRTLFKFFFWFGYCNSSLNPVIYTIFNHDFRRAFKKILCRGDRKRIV

[5] = target: T3, Corticotropin-releasing factor receptor 1 (Homo sapiens, UniProt P34998)
T3 sequence (P34998 whole entry): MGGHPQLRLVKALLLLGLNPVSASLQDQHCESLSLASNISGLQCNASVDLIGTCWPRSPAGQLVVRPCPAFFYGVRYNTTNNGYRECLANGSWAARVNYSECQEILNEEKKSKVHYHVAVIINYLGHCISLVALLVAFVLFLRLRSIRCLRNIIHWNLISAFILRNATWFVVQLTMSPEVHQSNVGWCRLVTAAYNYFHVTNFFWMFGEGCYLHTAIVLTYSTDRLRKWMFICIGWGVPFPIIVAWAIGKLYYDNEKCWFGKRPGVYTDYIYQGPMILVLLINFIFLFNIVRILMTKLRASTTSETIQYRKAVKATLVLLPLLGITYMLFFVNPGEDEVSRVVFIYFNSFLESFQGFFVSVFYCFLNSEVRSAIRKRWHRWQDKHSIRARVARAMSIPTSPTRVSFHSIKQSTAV

[6] = target: T4, B1 bradykinin receptor (Homo sapiens, UniProt P46663)
T4 sequence (P46663 whole entry): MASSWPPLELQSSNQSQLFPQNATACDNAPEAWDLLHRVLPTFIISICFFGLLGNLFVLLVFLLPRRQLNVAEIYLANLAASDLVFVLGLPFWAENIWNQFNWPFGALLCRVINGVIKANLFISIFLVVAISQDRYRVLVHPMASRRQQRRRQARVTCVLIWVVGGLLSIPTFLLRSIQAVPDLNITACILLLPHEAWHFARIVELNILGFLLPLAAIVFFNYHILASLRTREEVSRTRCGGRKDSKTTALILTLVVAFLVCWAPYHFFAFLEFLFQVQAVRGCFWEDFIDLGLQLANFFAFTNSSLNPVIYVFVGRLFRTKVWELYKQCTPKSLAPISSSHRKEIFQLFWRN

[7] = target: T5, Corticotropin-releasing factor receptor 2 (Homo sapiens, UniProt Q13324)
T5 sequence (Q13324 whole entry): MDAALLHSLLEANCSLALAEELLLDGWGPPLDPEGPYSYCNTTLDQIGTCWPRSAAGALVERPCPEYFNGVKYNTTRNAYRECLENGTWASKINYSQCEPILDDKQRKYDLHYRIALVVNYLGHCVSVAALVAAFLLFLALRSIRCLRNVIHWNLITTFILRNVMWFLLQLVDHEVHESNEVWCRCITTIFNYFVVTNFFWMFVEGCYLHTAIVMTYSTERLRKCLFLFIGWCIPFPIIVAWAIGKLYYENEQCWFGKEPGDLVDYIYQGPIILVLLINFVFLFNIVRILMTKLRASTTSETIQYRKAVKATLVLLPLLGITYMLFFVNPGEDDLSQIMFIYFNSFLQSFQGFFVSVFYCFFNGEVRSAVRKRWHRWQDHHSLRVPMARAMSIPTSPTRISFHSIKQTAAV

[8] = target: Estrogen receptor beta (Homo sapiens, UniProt Q92731)
[9] = target: Gamma-aminobutyric acid receptor subunit alpha-1 (Rattus norvegicus, UniProt P62813)
Note: assay procedure not described here.

Estrogen receptor beta, sequence (Q92731 whole entry): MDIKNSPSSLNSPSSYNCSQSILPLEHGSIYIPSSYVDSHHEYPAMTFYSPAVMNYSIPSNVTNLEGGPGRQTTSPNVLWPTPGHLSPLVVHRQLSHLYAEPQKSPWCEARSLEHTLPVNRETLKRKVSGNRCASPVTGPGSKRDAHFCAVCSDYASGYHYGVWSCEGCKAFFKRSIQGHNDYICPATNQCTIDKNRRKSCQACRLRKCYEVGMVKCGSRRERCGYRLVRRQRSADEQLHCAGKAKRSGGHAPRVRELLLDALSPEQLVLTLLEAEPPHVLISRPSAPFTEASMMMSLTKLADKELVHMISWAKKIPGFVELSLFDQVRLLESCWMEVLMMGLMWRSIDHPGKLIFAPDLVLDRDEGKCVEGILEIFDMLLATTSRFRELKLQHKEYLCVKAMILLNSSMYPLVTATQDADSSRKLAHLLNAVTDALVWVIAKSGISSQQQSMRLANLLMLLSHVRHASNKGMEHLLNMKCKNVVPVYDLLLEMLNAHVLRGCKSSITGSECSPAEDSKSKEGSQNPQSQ
Gamma-aminobutyric acid receptor subunit alpha-1/alpha-2/beta-2/gamma-2, sequence (P14867 whole entry): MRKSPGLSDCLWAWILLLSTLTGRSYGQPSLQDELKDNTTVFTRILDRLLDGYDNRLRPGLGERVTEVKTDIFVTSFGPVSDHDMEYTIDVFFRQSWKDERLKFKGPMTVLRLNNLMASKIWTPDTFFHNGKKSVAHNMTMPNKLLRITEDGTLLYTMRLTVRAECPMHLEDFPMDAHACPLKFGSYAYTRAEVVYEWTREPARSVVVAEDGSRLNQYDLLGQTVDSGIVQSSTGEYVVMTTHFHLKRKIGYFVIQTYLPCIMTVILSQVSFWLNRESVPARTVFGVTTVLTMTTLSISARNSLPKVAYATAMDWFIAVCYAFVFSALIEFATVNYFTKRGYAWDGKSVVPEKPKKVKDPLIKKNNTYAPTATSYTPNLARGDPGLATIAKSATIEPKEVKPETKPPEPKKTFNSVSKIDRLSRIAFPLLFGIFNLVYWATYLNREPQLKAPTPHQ
Gamma-aminobutyric acid receptor subunit alpha-1/alpha-2/beta-2/gamma-2, sequence (P47870 whole entry): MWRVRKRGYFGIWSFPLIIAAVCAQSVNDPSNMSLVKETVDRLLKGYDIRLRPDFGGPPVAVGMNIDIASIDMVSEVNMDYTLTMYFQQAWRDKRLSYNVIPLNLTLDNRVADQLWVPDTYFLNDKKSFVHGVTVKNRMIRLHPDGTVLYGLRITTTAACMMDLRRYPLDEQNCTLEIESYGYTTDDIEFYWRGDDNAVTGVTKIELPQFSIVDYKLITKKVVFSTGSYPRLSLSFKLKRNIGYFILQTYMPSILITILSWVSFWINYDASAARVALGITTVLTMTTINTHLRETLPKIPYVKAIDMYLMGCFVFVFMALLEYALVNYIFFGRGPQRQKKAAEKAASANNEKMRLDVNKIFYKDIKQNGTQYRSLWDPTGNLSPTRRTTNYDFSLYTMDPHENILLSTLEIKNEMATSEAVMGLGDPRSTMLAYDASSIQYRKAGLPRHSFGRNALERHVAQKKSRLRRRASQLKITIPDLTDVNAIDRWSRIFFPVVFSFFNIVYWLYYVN
Gamma-aminobutyric acid receptor subunit alpha-1/alpha-2/beta-2/gamma-2, sequence (P18507 whole entry): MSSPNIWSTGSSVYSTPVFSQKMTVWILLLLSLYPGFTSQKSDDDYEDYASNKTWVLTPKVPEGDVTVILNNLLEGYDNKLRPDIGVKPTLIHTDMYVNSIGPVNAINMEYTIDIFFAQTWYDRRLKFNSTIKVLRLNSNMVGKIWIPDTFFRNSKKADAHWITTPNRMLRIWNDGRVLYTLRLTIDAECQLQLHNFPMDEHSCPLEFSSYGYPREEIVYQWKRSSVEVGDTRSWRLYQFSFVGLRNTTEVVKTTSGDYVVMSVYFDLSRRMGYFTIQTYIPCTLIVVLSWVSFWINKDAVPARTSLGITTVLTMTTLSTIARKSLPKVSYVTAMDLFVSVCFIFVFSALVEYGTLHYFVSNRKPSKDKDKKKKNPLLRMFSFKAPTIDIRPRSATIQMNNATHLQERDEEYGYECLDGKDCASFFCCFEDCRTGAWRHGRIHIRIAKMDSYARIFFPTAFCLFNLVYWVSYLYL
Gamma-aminobutyric acid receptor subunit alpha-1/alpha-2/beta-2/gamma-2, sequence (P47869 whole entry): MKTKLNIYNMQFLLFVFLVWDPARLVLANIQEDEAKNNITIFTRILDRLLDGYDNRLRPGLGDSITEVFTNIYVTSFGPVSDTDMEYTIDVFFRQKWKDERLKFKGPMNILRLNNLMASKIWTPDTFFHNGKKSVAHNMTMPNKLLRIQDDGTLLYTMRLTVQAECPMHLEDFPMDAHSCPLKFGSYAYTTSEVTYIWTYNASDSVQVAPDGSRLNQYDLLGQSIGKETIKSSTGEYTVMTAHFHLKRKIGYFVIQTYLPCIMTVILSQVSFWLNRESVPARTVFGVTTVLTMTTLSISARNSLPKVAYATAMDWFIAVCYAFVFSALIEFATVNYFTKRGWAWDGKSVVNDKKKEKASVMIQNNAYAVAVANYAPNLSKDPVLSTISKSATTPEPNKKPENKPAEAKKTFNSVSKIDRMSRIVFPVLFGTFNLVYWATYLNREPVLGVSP
Gamma-aminobutyric acid receptor subunit alpha-1, sequence (P62813 whole entry): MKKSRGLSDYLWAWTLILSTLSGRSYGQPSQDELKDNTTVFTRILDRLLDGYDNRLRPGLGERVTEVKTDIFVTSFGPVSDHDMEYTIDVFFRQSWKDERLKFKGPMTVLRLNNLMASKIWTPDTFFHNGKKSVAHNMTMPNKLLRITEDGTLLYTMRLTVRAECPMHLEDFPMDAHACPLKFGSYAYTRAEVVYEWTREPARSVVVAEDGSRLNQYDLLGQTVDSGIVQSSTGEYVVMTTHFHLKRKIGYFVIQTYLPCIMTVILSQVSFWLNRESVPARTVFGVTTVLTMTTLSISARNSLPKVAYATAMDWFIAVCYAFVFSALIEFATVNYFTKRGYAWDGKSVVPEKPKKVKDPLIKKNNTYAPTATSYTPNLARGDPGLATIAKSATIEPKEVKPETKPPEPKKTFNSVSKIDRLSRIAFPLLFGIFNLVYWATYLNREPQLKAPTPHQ

Compound | AC50 [1] [µM] | AC50 [2] [µM] | AC50 [3] [µM] | AC50 [4] [µM] | AC50 [5] [µM] | AC50 [6] [µM] | AC50 [7] [µM] | AC50 [8] [µM] | AC50 [9] [µM]
CO/N=C(\C(=O)N[C@@H]1C(=O)N2C(C(=O)[O-])=C(C[N+]3(C)CCCC3)CS[C@H]12)c1csc(N)n1 | > 300 | > 2400 | > 300 | – | – | – | – | – | –
CCOC(=O)[C@H](CCc1ccccc1)N[C@@H](C)C(=O)N1CCC[C@H]1C(=O)O | – | – | – | > 10 | > 30 | > 30 | > 30 | – | –
Nc1nc(N)c2nc(-c3ccccc3)c(N)nc2n1 | – | – | – | > 10 | > 30 | > 10 | > 30 | > 30 | –
C[C@H]1O[C@H](O[C@H]2[C@H](O)[C@@H](O)[C@@H](O[C@H]3[C@H](O)[C@@H](O)C(O)O[C@@H]3CO)O[C@@H]2CO)[C@H](O)[C@@H](O)[C@@H]1N[C@H]1C=C(CO)[C@@H](O)[C@H](O)[C@H]1O (some centres not stated) [ACARBOSE] | – | – | – | > 10 | > 30 | > 30 | > 30 | > 30 | > 30
CC(=O)c1ccc2c(c1)N(CCCN1CCN(CCO)CC1)c1ccccc1S2 [ACETOPHENAZINE] | > 30 | > 30 | > 30 | – | – | – | – | – | –
Oc1ncnc2[nH]ncc12 [ALLOPURINOL] | – | – | – | > 10 | > 30 | > 30 | > 30 | > 30 | –
CN1CCCC(n2nc(Cc3ccc(Cl)cc3)c3ccccc3c2=O)CC1 (configuration not stated) [AZELASTINE] | > 30 | 19 | > 30 | – | – | – | – | – | –
CC(C)NCC(O)COc1ccc(COCCOC(C)C)cc1 (configuration not stated) [BISOPROLOL] | – | – | – | > 10 | > 30 | > 30 | > 30 | > 30 | –
COc1cc(Nc2c(C#N)cnc3cc(OCCCN4CCN(C)CC4)c(OC)cc23)c(Cl)cc1Cl [BOSUTINIB] | – | – | – | 6.01 | > 30 | > 30 | > 30 | > 30 | > 30
N[C@@H](C(=O)N[C@@H]1C(=O)N2C(C(=O)O)=C(Cl)CS[C@H]12)c1ccccc1 [CEFACLOR ANHYDROUS] | – | > 30 | – | – | – | – | – | – | –
CCC[C@@H]1C[C@@H](C(=O)N[C@@H]([C@H]2O[C@H](SC)[C@H](O)[C@@H](O)[C@H]2O)[C@H](C)Cl)N(C)C1 [CLINDAMYCIN] | – | – | – | > 10 | > 30 | > 30 | > 30 | > 30 | –
CN(CCOc1ccc(NS(C)(=O)=O)cc1)CCc1ccc(NS(C)(=O)=O)cc1 [DOFETILIDE] | – | – | – | > 10 | > 30 | > 30 | > 30 | – | –
COc1cc2c(cc1OC)C(=O)C(CC1CCN(Cc3ccccc3)CC1)C2 (configuration not stated) [DONEPEZIL] | – | – | – | 10.4 | > 30 | > 30 | > 30 | > 30 | –
COC(=O)[C@@H]1CC2=CC(=O)CC[C@]2(C)[C@@]23O[C@@H]2C[C@@]2(C)[C@@H](CC[C@@]24CCC(=O)O4)[C@H]13 [EPLERENONE] | – | > 30 | – | > 10 | > 30 | > 30 | > 30 | – | –
C#C[C@]1(O)CC[C@H]2[C@@H]3CCc4cc(O)ccc4[C@H]3CC[C@@]21C [ETHINYL ESTRADIOL] | > 30 | – | > 30 | > 10 | > 30 | > 30 | > 30 | – | > 30

— ChEMBL document CHEMBL5291721, “A preclinical secondary pharmacology resource illuminates target-adverse drug reaction associations of marketed drugs” (Nat Commun, 2023)
